Drawing on the METLIN SMRT retention time set (Domingo-Almenara et al. 2019), this text covers RP-LC retention time for 78 molecules.

Molecules are shown by their SMILES.

The data set is described as follows: gradient 5% acetonitrile 3 min, to 50% in 2 min, to 85% in 15 min, held 3 min, 100 µL/min. The settings on record: column: Zorbax Extend-C18 2.1 x 50 mm; eluents: water / acetonitrile, 0.1% formic acid. The procedure, abridged: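 Pure standards were run in mixtures of ~100 molecules by HPLC coupled to a quadrupole time-of-flight mass spectrometer. The column was a Zorbax Extend-C18 (2.1 × 50 mm, 1.8 μm) at 100 μL/min, with water and acetonitrile each containing 0.1% formic acid, in positive and negative ionization mode. Dead and dwell volumes were 40 μL and 900 μL. Retention time was taken from computationally picked adduct peaks, each manually inspected, with data collected over 3 months.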
The molecule `Cc1ccc(-c2cc3c(=O)n(Cc4noc(CN5CCC(C)CC5)n4)ccn3n2)cc1C` showed an RP-LC retention time of 742 s. Take `Cn1cc(SCC(=O)NCc2ccco2)c2ccccc21`: the RP-LC retention time was 778 s. The value for `COC(=O)Cn1c(-c2ccccc2)cnc1SCC(=O)Nc1nccs1` was 671 s; that for `COc1ccc(-n2c(CN3CCN(C(=O)NC(C)C)CC3)nc3cccnc32)cc1` was 595 s. As to `CC1=C(c2cccc(Cl)c2)S(=O)(=O)N=C1N1CCC(NC(=O)NCC(C)C)CC1`, the RP-LC retention time came out at 651 s. The value for `Cc1ccccc1-c1nc(-c2ccc(-n3cccn3)nc2)no1` was 1310 s. `Cc1cc(Cl)ccc1NC(=O)N1C[C@@H]2C[C@H]1C[C@@H]2NS(=O)(=O)c1ccccc1` had an RP-LC retention time of 883 s. `CCOc1cc(-c2ccc(C)cc2)nc2ccc(NC(=O)c3cccs3)cc12` registered an RP-LC retention time of 824 s. `CC1CCN(S(=O)(=O)c2ccc(Cl)c(-c3nnc(-c4ccccc4)o3)c2)CC1` displayed an RP-LC retention time of 1250 s.

`Cc1cc(CNC(=O)c2cc3ccccc3o2)c(C)o1` showed an RP-LC retention time of 852 s. With `CN(C)S(=O)(=O)c1ccc(-c2nnc(C(=O)NCCN3CCOCC3)o2)cc1`, the RP-LC retention time turned out to be 1270 s. For `O=C(NCC1CCCO1)C1COC2(CCN(C(=O)c3ccccc3F)CC2)N1C(=O)c1ccccc1` (stereo not drawn) the value was 673 s; for `CC(C)n1cc(C2=CCN(S(=O)(=O)c3cccc(C#N)c3)CC2)c2cccnc21`, 995 s. As for `COc1ccc(-c2noc(C3CC(=O)N(c4cc(Cl)ccc4OC)C3)n2)cc1` (stereo not drawn), the RP-LC retention time is 950 s. For `CCc1nc(-c2csc(S(=O)(=O)N3CCC(C(=O)N4CCc5ccccc54)CC3)c2)no1` the value was 1050 s; for `COC(=O)c1cccc(NC(=O)C2CCCN(c3nnc4ccc(Cl)cn34)C2)c1` (stereo not drawn), 735 s. Molecule `O=C(Nc1cccc(OCc2nnc(-c3ccccc3)o2)c1)C1CCCC1` returned an RP-LC retention time of 943 s. For `Cc1nc2cc(-c3noc(-c4ccc5ccccc5n4)n3)ccc2o1`, the RP-LC retention time amounted to 998 s.

Regarding `O=C(O)c1ccc2c(c1)C(=O)N(Nc1ccccc1[N+](=O)[O-])C2=O`, the RP-LC retention time is 953 s.

`Cc1csc(-c2cc(S(=O)(=O)NCC3CCCCC3)cn2CC(=O)N2CCCCC2)n1` returned an RP-LC retention time of 1100 s. For `COc1ccc(NC(=O)CCC2CCN(c3cc(NC4CC4)ncn3)CC2)c(C)c1` the value was 575 s; for `Cc1ccc(-c2noc(C3CCCN3S(=O)(=O)c3ccc(C)c(C)c3)n2)cc1` (stereo not drawn), 1260 s. Molecule `CC(C)Cc1ccc(S(=O)(=O)N2CCc3nc[nH]c3C2)cc1` showed an RP-LC retention time of 693 s. Turning to `Cc1sc(NC(=O)CN(C)S(C)(=O)=O)c(C#N)c1C`, the RP-LC retention time stood at 719 s. Turning to `O=C(NCc1ccco1)C1CCN(Cc2cc3ccccc3n2Cc2ccccc2Cl)CC1`, the RP-LC retention time came to 790 s. Molecule `O=C(NCCN1CCCCC1)C1CCc2sc(C(=O)N3CCCC3)cc2C1` (stereo not drawn) came in with an RP-LC retention time of 534 s. `CCN(CC)S(=O)(=O)c1ccc(NC(=O)N2CCCC(C(=O)Nc3ccc(OC)cc3)C2)s1` (stereo not drawn) yielded an RP-LC retention time of 884 s.

As for `CCCCN1CCN(C(=O)CCC2CCCN(c3cc(NC4CC4)ncn3)C2)CC1` (stereo not drawn), the RP-LC retention time amounted to 565 s. For `CC(C)CNC(=O)CCc1ccc2nc(-c3ccccc3)[nH]c2c1` the value was 618 s. The molecule `CN(C)c1nc(C(=O)N2CCN(c3cccc(Cl)c3)CC2)nc2c1cnn2C` gave an RP-LC retention time of 818 s. Regarding `Cc1cccc(-c2nnc(C)c(NCc3ccc(C)o3)n2)c1`, the RP-LC retention time came out at 736 s. Molecule `COc1cc(CN2CC(Oc3ccc(-c4noc(-c5ccncc5)n4)cc3)C2)cc(OC)c1` displayed an RP-LC retention time of 728 s.

`CN1C(=O)COc2ccc(-c3csc(NC(=O)c4cccnc4)n3)cc21` had an RP-LC retention time of 733 s. The value for `O=C(C1CCCO1)N1CCc2ccc(NS(=O)(=O)c3ccc(F)c(Cl)c3)cc21` (stereo not drawn) was 813 s; that for `Cc1ccc(-n2c(N3CCCC(C(=O)NCCC4=CCCCC4)C3)nc3ccsc3c2=O)cc1` (stereo not drawn) was 1060 s; that for `O=c1c2sccc2n(Cc2nc(-c3cccc(Br)c3)no2)c(=O)n1-c1ccc(F)cc1` was 1080 s. The molecule `Cc1cc(=O)n(CC(=O)Nc2cccc(Br)c2)c(N2CCOCC2)n1` returned an RP-LC retention time of 705 s. For `COC(=O)c1cc(C2CC2)nc2c1c(=O)n(Cc1ccc(Cl)cc1)c(=O)n2C` the value was 1180 s; for `Cc1ccc(NC(=O)N2CCCC(Cn3cnc4cccnc43)C2)cc1` (stereo not drawn), 667 s; for `CCOC(=O)N1CCC2(CC1)N=C(c1ccc(Cl)cc1)CC(c1cccc(OC)c1O)N2` (stereo not drawn), 781 s. Molecule `Cc1ccc(N2C(=O)N(CC(=O)N3CCCCC3C)C3CS(=O)(=O)CC32)cc1Cl` (stereo not drawn) displayed an RP-LC retention time of 851 s.

For `O=C(CN1CCN(Cc2ccc(F)cc2Cl)C1=O)N1CCN(c2ccccc2)CC1`, the RP-LC retention time was 881 s.

Turning to `CCOCCOC(=O)C1=C(C)NC2=C(C(=O)CCC2)C1c1cccc(OC)c1OC` (stereo not drawn), the RP-LC retention time is 732 s. For `Cc1cccc(-c2noc(C3CCCN3S(=O)(=O)c3ccc4c(c3)CCCC4)n2)c1` (stereo not drawn), the RP-LC retention time worked out at 1340 s. `CCn1cc(-c2nc(C)c(C(=O)NCc3cccs3)s2)c2cccnc21`: the RP-LC retention time was 926 s. `O=C(c1ccc(N2CCOCC2)nn1)N1CCN(c2ncccn2)CC1` had an RP-LC retention time of 586 s.

`Cc1ccc(-c2noc(Cn3ccn(-c4ccccc4C)c(=O)c3=O)n2)cc1` showed an RP-LC retention time of 680 s.

`CCCN1C(=O)COc2cc(-c3noc(C(=O)N4CCN(c5ccc(Cl)cc5)CC4)n3)ccc21` showed an RP-LC retention time of 1190 s. `O=C(NCc1ccco1)C1CCN(c2ccc(Sc3ccccc3)nn2)CC1` registered an RP-LC retention time of 1060 s. Consider `Cc1ccc(CNC(=O)c2c(C)oc3ccn(C)c(=O)c23)cc1`, for which the RP-LC retention time was 919 s. The molecule `CCc1nc2ccc(CCC(=O)NCCCc3ccccc3)cc2[nH]1` came in with an RP-LC retention time of 614 s. `O=C(NCc1cccs1)C1CCCN(S(=O)(=O)c2c[nH]c(C(=O)N3CCCC3)c2)C1` (stereo not drawn) yielded an RP-LC retention time of 734 s. In turn, `CCn1c(=O)c(C(=O)NCc2ccc(C)cc2)nc2cccnc21` came in with an RP-LC retention time of 781 s. Regarding `CC1CCN(c2nccnc2Oc2ccc(C(=O)NCc3ccco3)cc2)CC1`, the RP-LC retention time is 979 s. Molecule `CCn1cc2c3c(cccc31)CN(C(=O)Nc1cc(OC)c(OC)c(OC)c1)CC2` returned an RP-LC retention time of 742 s.

Regarding `O=C(NCCc1csc(-c2cccs2)n1)C1CCN(S(=O)(=O)Cc2ccccc2)CC1`, the RP-LC retention time came to 855 s. Consider `CN(CCCNC(=O)C1CCc2nc(N3CCCCC3)ncc2C1)c1ccccc1` (stereo not drawn), for which the RP-LC retention time is 793 s. On to `O=C(C1CCN(c2ccc(Cl)cc2)C1=O)N1CCN(c2ccccn2)CC1` (stereo not drawn), for which the RP-LC retention time was 634 s.

Molecule `CC1CCN(C(=O)c2cc(S(=O)(=O)N3CCC(C(=O)NC4CCCCC4)CC3)cn2C)CC1` yielded an RP-LC retention time of 839 s. Take `COCCNC(=O)Cc1csc(SCC(=O)c2cccs2)n1`: the RP-LC retention time came out at 669 s. As for `O=c1c2ccccc2nc2n1CCC2O` (stereo not drawn), the RP-LC retention time was 567 s. The molecule `Cc1c(-c2noc(-c3ccc(F)c(F)c3)n2)nnn1Cc1ccccc1` registered an RP-LC retention time of 1090 s. `O=C(Nc1ccc(-n2cnnn2)cc1)c1csc(Nc2ccccc2)n1` came in with an RP-LC retention time of 777 s.

Regarding `CCCn1cc(C(=O)N2CCc3ccccc32)c2nn(-c3ccccc3)c(=O)c-2c1`, the RP-LC retention time is 840 s.

`CCCCCc1nnc(NC(=O)C2CC(=O)N(CCc3c[nH]c4ccc(C)cc34)C2)s1` (stereo not drawn) returned an RP-LC retention time of 873 s. `Cn1nc(C(=O)N2CCC(C(=O)N3CCCC3)CC2)c2c1CCN(C(=O)Cc1ccc(F)cc1)C2` yielded an RP-LC retention time of 679 s. In turn, `COc1ccc(-c2ncc3c(n2)CCN(C(=O)c2cccc(Br)c2)C3)cc1` gave an RP-LC retention time of 1020 s. For `COc1cc(NC(=O)c2cc(C(C)(C)C)n3nccc3n2)cc(OC)c1` the value was 721 s; for `COCc1noc([C@@H]2CC(F)(F)CN2C(=O)c2cncn2C)n1`, 584 s; for `O=C(c1cn2nc(Cl)ccc2n1)N1CCN(c2ccccc2Cl)CC1`, 922 s. `COc1cc(OC)cc(C(=O)N2C[C@@H]3C[C@H]2C[C@@H]3NS(=O)(=O)c2ccccc2)c1`: the RP-LC retention time was 792 s.

On to `Cc1ccc(Cl)cc1N1CCN(C(=O)c2ccc(Cn3cncn3)cc2)CC1`, for which the RP-LC retention time amounted to 877 s. As for `CCc1noc(-c2ccc(-n3cnc(C(=O)NC4CCCC4)c3)nc2)n1`, the RP-LC retention time stood at 865 s. Molecule `COc1ccc(C(=O)NC2(c3nc(-c4cccnc4)no3)CCCCC2)cc1F` registered an RP-LC retention time of 938 s.

Consider `Cc1csc(-c2cc(S(=O)(=O)Nc3ccc(F)c(F)c3)cn2CC(=O)N2CCCC2)n1`, for which the RP-LC retention time was determined as 927 s.

Molecule `CCOc1ccccc1NC(=O)CSc1nnc2c3cc(-c4ccc(C)c(C)c4)nn3ccn12` returned an RP-LC retention time of 1090 s. On to `CN(C)c1ccc(-c2nc3ncccn3c2Nc2cccc(C(F)(F)F)c2)cc1`, for which the RP-LC retention time came out at 765 s. On to `Cc1cccc(-c2nnc(-c3nc(NCc4ccco4)c4ccccc4n3)o2)c1`, for which the RP-LC retention time turned out to be 1010 s.
